Tests used:
[1] = test system: antibodies in sera from SARS patients (sera 1a, 1b, 2, 6, 37, 62, London, SARS-yellow, SARS-green); assay type: binding, human; parameters: Binding of serum 6 to linear peptides of protein X1 of SARS-CoV Urbani / Binding of serum 37 to linear peptides of protein X1 of SARS-CoV Urbani / Binding of serum 6 to looped/cyclic peptide (PEPSCAN-ELISA) / Binding of serum 37 to looped/cyclic peptide (PEPSCAN-ELISA) / Binding of serum 37 to looped/cyclic peptides of protein X1 of SARS-CoV Urbani / Binding of serum 6 to linear peptides of protein X2 / Binding of serum 37 to linear peptides of protein X2 / Binding of serum 37 to looped/cyclic peptides of protein X2 of SARS-CoV Urbani / Binding of serum 6 to linear peptides of protein M of SARS-CoV Urbani / Binding of serum 37 to linear peptides of protein M of SARS-CoV Urbani / Binding of serum 6 to looped/cyclic peptides of protein M of SARS-CoV Urbani / Binding of serum 37 to looped/cyclic peptides of protein M of SARS-CoV Urbani / Binding of serum 6 to linear peptides of protein X3 of SARS-CoV Urbani / Binding of serum 37 to linear peptides of protein X3 of SARS-CoV Urbani / Binding of serum 37 to looped/cyclic peptides of protein X3 of SARS-CoV Urbani / Binding of serum 6 to linear peptides of protein X4 of SARS-CoV Urbani / Binding of serum 37 to linear peptides of protein X4 of SARS-CoV Urbani / Binding of serum 37 to looped/cyclic peptides of protein X4 of SARS-CoV Urbani / Binding of serum 6 to linear peptides of protein X5 of SARS-CoV Urbani / Binding of serum 37 to linear peptides of protein X5 of SARS-CoV Urbani / Binding of serum 37 to looped/cyclic peptides of protein X5 of SARS-CoV Urbani / Binding of serum 6 to linear peptides of protein N of SARS-CoV Urbani / Binding of serum 37 to linear peptides of protein N of SARS-CoV Urbani / Binding of serum 6 to linear peptide (PEPSCAN-ELISA) / Binding of serum 1a to looped/cyclic peptides of protein N of SARS-CoV Urbani / Binding of serum 1b to looped/cyclic peptides of protein N of SARS-CoV Urbani / Binding of serum 2 to looped/cyclic peptides of protein N of SARS-CoV Urbani / Binding of serum 6 to looped/cyclic peptides of protein N of SARS-CoV Urbani / Binding of serum 37 to looped/cyclic peptides of protein N of SARS-CoV Urbani / Binding of serum 62 to looped/cyclic peptides of protein N of SARS-CoV Urbani / Binding of serum London to looped/cyclic peptides of protein N of SARS-CoV Urbani / Binding of serum SARS-green to looped/cyclic peptides of protein N of SARS-CoV Urbani: unit not given here
[2] = test system: rabbit serum obtained by immunizing a rabbit with the SARS-CoV strain Frankfurt 1; assay type: binding; parameters: Binding of a rabbit serum to linear peptides / Binding of a rabbit serum to looped peptides / Rabbit serum linear peptides / Rabbit serum looped peptides / Binding of a rabbit serum to linear peptides of protein N of SARS-CoV Urbani (Rabbit serum linear peptides) / Binding of a rabbit serum to looped/cyclic peptides of protein N of SARS-CoV Urbani (Rabbit serum looped peptides): unit not given here
[3] = test system: control sera (pooled serum of ten healthy LUMC hospital workers; commercial negative donor pooled serum from the Dutch bloodbank); assay type: binding, human; parameters: Binding of Control serum LUMC to linear peptides / Binding of Control serum Blood-bank to linear peptides / Binding of Control serum LUMC to looped peptides / Binding of Control Serum Blood-Bank to Looped peptides / Binding of Control serum LUMC to linear peptides of the protein M of SARS-CoV Urbani / Binding of Control serum Blood-bank to linear peptides of the protein M of SARS-CoV Urbani / Binding of Control serum LUMC to looped peptides of the protein M of SARS-CoV Urbani / Binding of Control Serum Blood-Bank to Looped peptides of the protein M of SARS-CoV Urbani: unit not given here

KLFIRQEEVQQELYS
Binding of serum 1a to linear peptides of protein X4 of SARS-CoV Urbani [1]: 0.7
Binding of serum 1a to looped/cyclic peptides of protein X4 of SARS-CoV Urbani [1]: 0.7
Binding of serum 1b to linear peptides of protein X4 of SARS-CoV Urbani [1]: 0.5
Binding of serum 1b to looped/cyclic peptides of protein X4 of SARS-CoV Urbani [1]: 0.6
Binding of serum 2 to linear peptides of protein X4 of SARS-CoV Urbani [1]: 0.4
Binding of serum 2 to looped/cyclic peptides of protein X4 of SARS-CoV Urbani [1]: 0.6
Binding of serum 6 to linear peptides of protein X4 of SARS-CoV Urbani [1]: 0.5
Binding of serum 6 to looped/cyclic peptides of protein X4 of SARS-CoV Urbani [1]: 0.4
Binding of serum 37 to linear peptides of protein X4 of SARS-CoV Urbani [1]: 0.7
Binding of serum 37 to looped/cyclic peptides of protein X4 of SARS-CoV Urbani [1]: 0.7
Binding of serum 62 to linear peptides of protein X4 of SARS-CoV Urbani [1]: 0.8
Binding of serum 62 to looped/cyclic peptides of protein X4 of SARS-CoV Urbani [1]: 0.6
Binding of serum London to linear peptides of protein X4 of SARS-CoV Urbani [1]: 0.7
Binding of serum London to looped/cyclic peptides of protein X4 of SARS-CoV Urbani [1]: 0.3
Binding of serum SARS-green to linear peptides of protein X4 of SARS-CoV Urbani [1]: 0.6
Binding of serum SARS-green to looped/cyclic peptides of protein X4 of SARS-CoV Urbani [1]: 0.8
Binding of serum SARS-yellow to linear peptides of protein X4 of SARS-CoV Urbani [1]: 0.4
Binding of serum SARS-yellow to looped/cyclic peptides of protein X4 of SARS-CoV Urbani [1]: 0.6
Rabbit serum linear peptides [2]: 0.5
Rabbit serum looped peptides [2]: 0.5
Binding of Control Serum Blood-Bank to Looped peptides [3]: 0.8
Binding of Control serum Blood-bank to linear peptides [3]: 0.5
Binding of Control serum LUMC to linear peptides [3]: 0.5
Binding of Control serum LUMC to looped peptides [3]: 0.8

DPAGGALIARCWYLH
Binding of serum 1a to linear peptides of protein X5 of SARS-CoV Urbani [1]: 0.7
Binding of serum 1a to looped/cyclic peptides of protein X5 of SARS-CoV Urbani [1]: 0.8
Binding of serum 1b to linear peptides of protein X5 of SARS-CoV Urbani [1]: 0.6
Binding of serum 1b to looped/cyclic peptides of protein X5 of SARS-CoV Urbani [1]: 0.5
Binding of serum 2 to linear peptides of protein X5 of SARS-CoV Urbani [1]: 0.4
Binding of serum 2 to looped/cyclic peptides of protein X5 of SARS-CoV Urbani [1]: 0.5
Binding of serum 6 to linear peptides of protein X5 of SARS-CoV Urbani [1]: 0.5
Binding of serum 6 to looped/cyclic peptides of protein X5 of SARS-CoV Urbani [1]: 0.4
Binding of serum 37 to linear peptides of protein X5 of SARS-CoV Urbani [1]: 0.8
Binding of serum 37 to looped/cyclic peptides of protein X5 of SARS-CoV Urbani [1]: 0.7
Binding of serum 62 to linear peptides of protein X5 of SARS-CoV Urbani [1]: 0.7
Binding of serum 62 to looped/cyclic peptides of protein X5 of SARS-CoV Urbani [1]: 0.6
Binding of serum London to linear peptides of protein X5 of SARS-CoV Urbani [1]: 0.6
Binding of serum London to looped/cyclic peptides of protein X5 of SARS-CoV Urbani [1]: 0.2
Binding of serum SARS-green to linear peptides of protein X5 of SARS-CoV Urbani [1]: 0.6
Binding of serum SARS-green to looped/cyclic peptides of protein X5 of SARS-CoV Urbani [1]: 0.6
Binding of serum SARS-yellow to linear peptides of protein X5 of SARS-CoV Urbani [1]: 0.2
Binding of serum SARS-yellow to looped/cyclic peptides of protein X5 of SARS-CoV Urbani [1]: 0.3
Rabbit serum linear peptides [2]: 0.3
Rabbit serum looped peptides [2]: 0.5
Binding of Control Serum Blood-Bank to Looped peptides [3]: 0.8
Binding of Control serum Blood-bank to linear peptides [3]: 0.7
Binding of Control serum LUMC to linear peptides [3]: 0.3
Binding of Control serum LUMC to looped peptides [3]: 0.6
